This passage reports IC50 results from patent publication US20260234165A1, “MACROCYCLIC COMPOUNDS, PREPARATION METHOD THEREFOR, AND USE THEREOF” (GENFLEET THERAPEUTICS (SHANGHAI) INC., priority 2004, published 2026).

Type in all cases: cell-based, human
For test [1], the system named is p-ERK in NCI-H441 cells (KRAS G12V mutation). The test can be described thus: Cell p-ERK assay (HTRF) in NCI-H441 cells. Conditions: NCI-H441 cells, 3 h compound incubation, HTRF p-ERK T202/Y204, read-out: H441 p-ERK IC50. The essentials:
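Seed 10000 AsPC-1 or 20000 NCI-H441 cells/well, overnight 37 °C/5% CO2. Cpd 3.16-fold series, 0.1% DMSO final, 3 h. Lyse 30 min, HTRF p-ERK (T202/Y204) Ab 4 h. IC50: 4-parameter fit of IR% normalised to DMSO and blank.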

In test [2] the test system is p-ERK in AsPC-1 cells (KRAS G12D mutation). The test can be described thus: Cell p-ERK assay (HTRF) in AsPC-1 cells. The note with it: AsPC-1 cells, 3 h compound incubation, HTRF p-ERK T202/Y204, read-out: AsPC-1 p-ERK IC50. The procedure: AsPC-1 cells were purchased from ATCC, Cat. No. CRL-1682: NCI-H441 cells were purchased from ATCC, Cat. No. HTB-174: RPMI-1640 medium was purchased from Gibco, Cat. No. I1875-093: FBS was purchased from Gibco, Cat. No. 10099-141C: penicillin/streptomycin double-antibiotic solution (PS) was purchased from Gibco, Cat. No. 15140-122: trypsin (containing EDTA) was purchased from Gibco, Cat. No. 25200-072; DMSO was purchased from VWRAMRESCO, Cat. No. 0231-500ML; 96-well cell culture plates were purchased from Corning, Cat. No. 3599: white-bottomed, opaque 96-well plates were purchased from Cisbio, Cat. No. 66PL96025; Advance ERK phospho-T202/Y204 kit was purchased from Cisbio, Cat. No. 64AERPEH; cell counter was purchased from CHEMOMETEC, model: NC-200; microplate reader was purchased from PerkinElmer, model: EnVision.
AsPC-1, a human pancreatic cancer cell strain endogenously containing a KRAS^G12D mutation, was cultured in a complete medium containing RPMI-1640+10% FBS+1% PS. NCI-H441, a human non-small cell lung cancer cell strain endogenously containing a KRAS^G12V mutation, was cultured in a complete medium containing RPMI-1640+10% FBS+1% PS.
The cells were digested with trypsin (containing EDTA), collected in their corresponding complete media, and counted. The density of the cell suspensions was adjusted with their corresponding complete media, and 10000 AsPC-1 cells or 20000 NCI-H441 cells per well were seeded into a 96-well cell culture plate, with the volume of the medium in each well being 80 μL.
The cell culture plate was incubated in an incubator at 37° C. with 5% CO2 overnight. A series of 3.16-fold gradient dilutions of a 1000- compound stock solution were prepared with DMSO, and then diluted 200-fold with the complete medium described above to give 5′ compound stock solutions. On the day after cell seeding, 20 μL of the 5× compound stock solution was added to each cell culture well. As a result, the final concentration of the compound in the cell culture well became 1×, and the DMSO content in the well was 0.1%. In addition to the compound-treated wells described above, cell-containing DMSO control wells were also set. A complete medium containing 0.5% DMSO was added at 20 μL/well. After the mixture was well mixed, the culture plate was incubated in the incubator at 37° C. with 5% CO2 for another 3 h. The medium was then removed from the culture wells, and 50 μL of cell lysis buffer (from Advance ERK phospho-T202,Y204 kit) was added to each well. The mixture was well mixed and incubated for 30 min. Then, 16 μL of the mixture was transferred to a white-bottomed, opaque 96-well assay plate, and separately, 16 μL of cell lysis buffer was added to additional wells (serving as blank wells) in the assay plate. After the transfer was completed, 4 μL of p-ERK HTRF antibody mixture (from Advance ERK phospho-T202/Y204 kit) was added to each well of the assay plate, followed by a 4-hour incubation. The HTRF signal values (RLU) were then measured using a microplate reader, and the inhibition rate of the compound against p-ERK levels was calculated as follows: IR (%)=(RLUDMSO−RLUcompound)/(RLUDMSO−RLUblank)×100%, where RLUDMSO is the average HTRF signal value from the DMSO control well samples, RLUblank is the average HTRF signal value from the blank well samples, and RLUcompound is the HTRF signal value from the compound-treated well samples. Using an XLfit software, the IR (%) values were plotted against the logarithm of the compound concentrations, and the dose-response curves were fitted using the four-parameter method to calculate the IC50 values.
(In general: TR-FRET usually uses a lanthanide donor and a delayed reading to cut background.)

Test [3] concerns AsPC-1 cells (KRAS G12D mutation). The test can be described thus: 3D cell proliferation assay (CellTiter Glo-3D), AsPC-1. The note with it: medium with 2% FBS, read-out: AsPC-1 AP IC50. An excerpt:
MIA PaCa-2 cells were purchased from ATCC, Cat. No. CRL-1420; AsPC-1 cells were purchased from ATCC, Cat. No. CRL-1682; NCI-H441 cells were purchased from ATCC, Cat. No. HTB-174: NCI-H1975 cells were purchased from ATCC. Cat. No. CRL-5908; DMEM medium was purchased from Gibco, Cat. No. 11995-065: RPMI-1040 medium was purchased from Gibco. Cat. No. H 18754093; FBS was purchased from Gibco, Cat. No. 10099-141C. penicillin, streptomycin double-antibiotic solution (PS) was purchased from Gibco, Cat. No. 15140-122; Horse serum was purchased from Gibco. Cat. No. 16050130: trypsin (containing EDTA) was purchased from Gibco, Cat. No. 25200-072; DMSO was purchased from VWRAMRESCO, Cat. No. 0231-500ML; 384-well cell culture plates were purchased from Corning, Cat. No. 3830; white-bottomed, opaque 384-well assay plates were purchased from Corning, Cat. No. 3570. CellTiter Glo-3D) kit was purchased from Promega. Cat. No. G9683; cell counter was purchased from CHEMOMETEC, model: NC-200: microplate reader was purchased from PerkinElmer, model: EnVision.
MIA PaCa-2, a human pancreatic cancer cell strain endogenously containing a KRAS^G12C mutation, was cultured in a complete medium containing DMEM+10% FBS+2.5% Horse serum+1% PS. AsPC-1, a human pancreatic cancer cell strain endogenously containing a […] mutation, was cultured in a complete medium containing RPMI-1640+10% FBS+1% PS. NCI-H441 cells, a human lung cancer cell strain endogenously containing a […] mutation, were cultured in a complete medium containing RPMI-1640+10% FBS+1% PS. NCI-H1975, a KRAS wild-type human lung cancer cell strain whose cell proliferation depends on KRAS activity, was cultured in a complete medium containing RPMI-1640+10% FBS+1% PS.
The cells were digested with trypsin (containing EDTA), collected in their respective low-serum complete media containing 2% FBS (for MIA Paca-2 cell culture: DMEM+2% FBS+0.5% Horse serum+1% PS), and counted. After the cell density was adjusted as required, 200 MIA PaCa-2 cells, 800 AsPC-1 cells, 800 NCI-H441 cells, or 400 NCI-H1975 cells per well were seeded into a 384-well cell culture plate, with the volume of the medium in each well being 45 μL. The cell culture plate was incubated in an incubator at 37° C. with 5% CO2, overnight. A series of 3.16-fold gradient dilutions of a 1000× compound stock solution were prepared with DMSO, and then diluted 100-fold with the complete medium containing 2% FBS described above to give 10- compound stock solutions. On the day after cell seeding, 5 μL of the 10- compound stock solution was added to each cell culture well. As a result, the final concentration of the compound in the cell culture well became 1×, and the DMSO content in the well was 0.1%. In addition to the compound-treated wells described above, cell-containing DMSO control wells (with 5 μL of the complete medium containing 1% DMSO added to each well) and cell-free medium control wells (containing 50 μL of the complete medium with 2% FBS) were also set. The culture plate was incubated in an incubator at 37° C. with 5% CO2 for another 5 days, and then 30 μL of CellTiter-Glo working solution was added to each well. The mixture was well mixed, incubated for 30 min, left to stand at room temperature for 30 min, and then transferred to a white-bottomed, opaque 384-well assay plate at 40 μL/well. The chemiluminescence values (RLU) were measured using a microplate reader, and the cell proliferation inhibition rate for each well was calculated: IR (%)=(RLUDMSO—RLUcompound)/(RLUDMSO−RLUblank)×100%, where RLUDMSO is the average RLU signal value from the DMSO control well samples, RLUblank is the average RLU signal value from the medium control well samples, and RLUcompound is the RLU signal value from the compound-treated well samples. […]
(ATP-based viability assays read luminescence as a measure of living cells.)

A further test deals with NCI-H441 cells. The test is described as follows: 3D cell proliferation assay (CellTiter Glo-3D), NCI-H441. Conditions: medium with 2% FBS, read-out: H441 AP IC50. The essentials:
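Luminescence read-out (CellTiter-Glo 3D) after 5-day compound exposure at 37 °C, 5% CO2. Cells: NCI-H441 and AsPC-1, 800/well, RPMI-1640 + 2% FBS, 0.1% DMSO final. IC50 by four-parameter fit of % inhibition against log concentration.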

The mark [4] stands for this setting: 3D cell proliferation (CellTiter Glo-3D).
[5] abbreviates: Homo sapiens, ASPC1, 3D cell proliferation (CellTiter Glo-3D).
Setting [6] is: Homo sapiens, NCI-H441, 3D cell proliferation (CellTiter Glo-3D).

pIC50: −log10 of the molar value. Read-outs that look alike come from different tables or passages of the source.

Consider `CCn1c(-c2cc(C#C[C@@H]3CCCN3C)cnc2[C@H](C)OC)c2c3cc(ccc31)-c1csc(n1)C[C@H](NC(=O)[C@H]1[C@H](C)[C@@H]1C)C(=O)N1CCC[C@H](N1)C(=O)OCC(C)(C)C2` (single isomer, unassigned) [Compound Z598A], for which the pIC50 was 8.77 in test [1], 8.38 in test [2], 8.19 in test [3] (setting [4]) and 8.33 in the test with NCI-H441 cells (setting [4]).
For `CO[C@@H](C)c1ncc(OCCN2CCS(=O)(=O)CC2)cc1-c1c2c3cc(ccc3n1C(C)C)-c1csc(n1)C[C@H](NC(=O)[C@H]1[C@H](C)[C@@H]1C)C(=O)N1CCC[C@H](N1)C(=O)OCC(C)(C)C2` (atropisomer, axis not shown; (Ra)) [Compound Z678, (1r,2R,3S)—N-((6^3S,4S,Z)—(Ra)-1^2-(5-(2-(1,1-dioxidothiomorpholino)ethoxy)-2-((S)-1-methoxyethyl)pyridin-3-yl)-1^1-isopropyl-10,10-dimethyl-5,7-dioxo-6^1,6^2,6^3,6^4,6^5,6^6-hexahydro-1^1H-8-oxa-2(4,2)-thiazola-1(5,3)-indola-6(1,3)-pyridazinacycloundecaphane-4-yl)-2,3-dimethylcyclopropane-1-carboxamide], the pIC50 in test [1] was 9.77; in test [2], 10.22; in test [3] (setting [4]), 9.77; in the test on NCI-H441 cells (setting [4]) it was 10.22.
As for “(1S,2R,3S)—N-((6^3S,4S,Z)—(Ra)-1^2-(5-(2-(4-oxa-7-azaspiro[2,5]octan-7-yl)ethoxy)-2-((S)-1-methoxyethyl)pyridin-3-yl)-11-ethyl-10,10-dimethyl-5,7-dioxo-6^1,6^2,6^3,6^4,6^5,6^6-hexahydro-1^1H-8-oxa-2(4,2)-thiazola-1(5,3)-indola-6(1,3)- pyridazinacycloundecaphane-4-yl)-2-methyl-3-(pyrimidin-4-yl)cyclopropane-1-carboxamide [Compound Z661-1]”, the pIC50 in test [1] was 7.42; in test [2], 7.03; in test [3] (setting [4]), 7.01; with NCI-H441 cells (setting [4]), 7.37.
In the case of `CCn1c(-c2cc(C#CCN3CCCOCC3)cnc2[C@H](C)OC)c2c3cc(ccc31)-c1csc(n1)C[C@H](NC(=O)CC1CC1(F)F)C(=O)N1CCC[C@H](N1)C(=O)OCC(C)(C)C2` (atropisomer, axis not shown; (Ra)) [Compound Z932], the pIC50 is 8.91 in test [1] (Homo sapiens, NCI-H441, 3 h); 8.67 in test [2] (Homo sapiens, ASPC1, 3 h); 8.38 in test [3] (setting [5]); 8.77 in the test with NCI-H441 cells (setting [6]).
Turning to `CCn1c(-c2cc(C#CCN3CC(C#N)C3)cnc2[C@H](C)OC)c2c3cc(ccc31)-c1csc(n1)C[C@H](Nc1nnc3cc(C)ccn13)C(=O)N1CCC[C@H](N1)C(=O)OCC(C)(C)C2` (atropisomer, axis not shown; (Ra)) [Compound Z974, 1-(3-(5-((6^3S,4S,Z)-1^1-ethyl-10,10-dimethyl-4-((7-methyl-[1,2,4]triazolo[4,3-a]pyridin-3-yl)amino)-5,7-dioxo-6^1,6^2,6^3,6^4,6^5,6^6-hexahydro-1^1H-8-oxa-2(4,2)-thiazola-1(5,3)-indola-6(1,3)-pyridazinacycloundecaphane-1^2-yl)-6-(Ra)—((S)-1-methoxyethyl)pyridin-3-yl)prop-2-yn-1-yl)azetidine-3-carbonitrile], the pIC50 in test [1] (Homo sapiens, NCI-H441, 3 h) is 8.67; in test [3] (setting [5]), 8.25; with NCI-H441 cells (setting [6]), 8.46.

Usually pIC50 stands for the IC50 on a negative log10 scale, so that one unit is a factor of ten.
